Where a SMILES comes first, the peptide text is derived from it. Bridges are numbered along the chain shown (N, C = ends).
What was measured:
WT and GC-C KO mice [1] = assay: colorectal distension under basal conditions in WT and GC-C KO mice; assay type: in vivo, mouse; settings: oral 0.01 and 0.3 μg/kg
Method: (§1) TNBS induced visceral hypersensitivity was assessed in WT and GC-C KO mice. Two groups (WT and GC-C KO) of male mice (22-25 g) were surgically prepared for electromyographic (EMG) recordings. Three electrodes were implanted in the striated muscles of the abdomen for EMG recording of abdominal contractions. Colorectal distension (CRD) was performed with a balloon inflated by 10s steps of 0.02 ml from 0 to 0.12 ml. Under basal conditions mice were submitted to control CRD (time 0) followed by oral administration of SEQ ID NO:3 (0.01 and 0.3 μg/kg) or vehicle only (distilled water, 1 ml) at 3 hours. One hour post dosing the CRD procedure was repeated. Abdominal EMG contractile response to colorectal distension in basal conditions in both WT and GC-C KO mice (12-14 mice per group) was determined in the absence of vehicle and SEQ ID NO:3, and the mean+/−standard error of the mean (SEM) is graphically depicted in FIG. 7c.

CD rats = assay: rat gastrointestinal transit assay; assay type: in vivo
Method: The gastrointestinal transit assay was also performed in male and female CD rats (Charles River; Wilmington, Mass.) weighing between 136-191 g with an average weight of 167.6 g. The assay was performed as described above for mice except an average of 5-8 animals were used for each test group and test peptide and 5% activated carbon were administered simultaneously (versus 7 minutes apart). In addition, the animals were sacrificed 10 minutes after the administration of peptide and test compound.

[2] = test system: healthy males and postmenopausal females; assay: single oral dose study in humans, bowel habits (BSFS); assay type: in vivo, human
Method: Single doses of 30, 100, 300, 1000 or 3000 μg of chemically synthesized SEQ ID NO:3 were given to 30 healthy males and postmenopausal females. At each dose level (100 μg was done twice) SEQ ID NO:3 or placebo (vehicle) was administered orally in 5.0 mL 50 mM phosphate buffer (pH 6.0) plus 3×20 mL water rinses and 175 mL water after at least a 10-hour fast. In each dosing group, subjects were randomized to receive either placebo (1 subject) or SEQ ID NO:3 (3-4 subjects). Bowel habits (including Bristol Stool Form Scale score (BSFS; FIG. 14a), stool frequency, and stool weight) were evaluated for each collected bowel movement 48 hours prior to dose and up to approximately 48 hours postdose.

[3] = oral bioavailability in rats, LCMS; assay type: in vivo, rat; settings: SEQ ID NO:3 10 mg/kg
Method: Similarly, oral bioavailability was determined in rats using LCMS methodology. Rat plasma samples containing SEQ ID NO:3 and/or SEQ ID NO:6 were extracted using a Waters Oasis MAX 96 well solid phase extraction (SPE) plate. A 200 μL volume of rat plasma was mixed with 200 μL of ^13C9, ^15N—SEQ ID NO:3 in the well of a prepared SPE plate. The samples were drawn through the stationary phase with 15 mm Hg vacuum. All samples were rinsed with 200 μL of 2% ammonium hydroxide in water followed by 200 μL of 20% methanol in water. The samples were eluted with consecutive 100 μL volumes of […] formic acid/water/methanol and 100 μL 5/15/80 formic acid/water/methanol. The samples were dried under nitrogen and resuspended in 100 μL of 20% methanol in water. Samples were analyzed by a Waters Quattro Micro mass spectrometer coupled to a Waters 1525 binary pump with a Waters 2777 autosampler. A 40 μL volume of each sample was injected onto a Thermo Hypersil GOLD C18 column (2.1×50 mm, 5 um). SEQ ID NO:3 and SEQ ID NO:6 were eluted by a gradient over 3 minutes with acetonitrile and water containing 0.05% trifluoroacetic acid. The Quattro Micro mass spectrometer was run in multiple reaction monitoring (MRM) mode using the mass transitions of 764>182 and 682>136 for SEQ ID NO:3 and SEQ ID NO:6 respectively. Using this methodology, SEQ ID NO:3 was dosed orally and by IV to rats at 10 mg/kg. […] In this experiment, the limit of detection (LOD) for SEQ ID NO:6 was 0.78 nM. SEQ ID NO:6 was detected at all time points for the intravenous dose and was not detected beyond 240 min for the oral dose. For non-detected values, the LOD was used as an upper estimate of the concentration of SEQ ID NO:6. The calculated value for AUCp.o., (0-6h) was <1308 nM-min and AUCi.v.,(0-6h) was 1,590,000 nM-min. The 6 h bioavailability of SEQ ID NO:6 determined by circulating plasma levels was 0.08%

Female CD rats = assay: ligated loop model in rats (cGMP, secretion); assay type: in vivo; settings: center loop of the rat small intestine, 5 μg, FIG. 17b
Source text: In the case of the rat, however four loops of intestine were surgically ligated. The first three loops were distributed equally in the small intestine and the fourth loop was located in colon. […] SEQ ID NO:3 increases cGMP levels and secretion in the center loop of the rat small intestine as shown in FIG. 17b (n=9-10 animal per group for secretion assays; n=7-8 animals for cGMP assays).

suckling mice = assay: suckling mouse model of intestinal secretion (SuMi assay); assay type: in vivo; settings: dose response, FIG. 5a, 5b
Method: In this model a test compound is administered to suckling mice that are between 7 and 9 days old. After the mice are sacrificed, the gastrointestinal tract from the stomach to the cecum is dissected (“guts”). The remains (“carcass”) as well as the guts are weighed and the ratio of guts to carcass weight is calculated. If the ratio is above 0.09, one can conclude that the test compound increases intestinal secretion. […] The effect of Zelnorm® was also studied.

[4] = biological target: intestinal epithelial cells from wild-type and GC-C KO mice (Mus musculus, UniProt Q3UWA6); settings: 125I-SEQ ID NO:3 alone or with excess unlabeled SEQ ID NO:3, FIG. 9b
Method: Mouse intestinal epithelial cells were prepared identical to that above as for rat intestinal epithelial cells except the cells were homogenized with an Omni homogenizer for 20 seconds on the maximum setting to make a suspension of cells. A competition binding assay was performed identical to that described above between ^125I labeled SEQ ID NO:3 and unlabeled SEQ ID NO:3 (competitor).

WT and GC-C KO mice [5] = assay: TNBS visceral hypersensitivity model in WT and GC-C KO mice; assay type: in vivo, mouse; settings: oral 0.01 μg/kg, FIG. 7d
Method: as §1
For TNBS induced visceral hypersensitivity conditions, mice were submitted to control CRD (time 0) and TNBS (20 mg/kg) was administered at 3 days. […] The effect of SEQ ID NO:3 ([…]) on abdominal response to colorectal distension after TNBS in WT and GC-C KO mice (12-14 per group) at a volume distension of […] was determined and the mean+/−standard error of the mean (SEM) is graphically depicted in FIG. 7d.

Chain of intestinal epithelial cells from wild-type and GC-C KO mice (Q3UWA6 20-1072): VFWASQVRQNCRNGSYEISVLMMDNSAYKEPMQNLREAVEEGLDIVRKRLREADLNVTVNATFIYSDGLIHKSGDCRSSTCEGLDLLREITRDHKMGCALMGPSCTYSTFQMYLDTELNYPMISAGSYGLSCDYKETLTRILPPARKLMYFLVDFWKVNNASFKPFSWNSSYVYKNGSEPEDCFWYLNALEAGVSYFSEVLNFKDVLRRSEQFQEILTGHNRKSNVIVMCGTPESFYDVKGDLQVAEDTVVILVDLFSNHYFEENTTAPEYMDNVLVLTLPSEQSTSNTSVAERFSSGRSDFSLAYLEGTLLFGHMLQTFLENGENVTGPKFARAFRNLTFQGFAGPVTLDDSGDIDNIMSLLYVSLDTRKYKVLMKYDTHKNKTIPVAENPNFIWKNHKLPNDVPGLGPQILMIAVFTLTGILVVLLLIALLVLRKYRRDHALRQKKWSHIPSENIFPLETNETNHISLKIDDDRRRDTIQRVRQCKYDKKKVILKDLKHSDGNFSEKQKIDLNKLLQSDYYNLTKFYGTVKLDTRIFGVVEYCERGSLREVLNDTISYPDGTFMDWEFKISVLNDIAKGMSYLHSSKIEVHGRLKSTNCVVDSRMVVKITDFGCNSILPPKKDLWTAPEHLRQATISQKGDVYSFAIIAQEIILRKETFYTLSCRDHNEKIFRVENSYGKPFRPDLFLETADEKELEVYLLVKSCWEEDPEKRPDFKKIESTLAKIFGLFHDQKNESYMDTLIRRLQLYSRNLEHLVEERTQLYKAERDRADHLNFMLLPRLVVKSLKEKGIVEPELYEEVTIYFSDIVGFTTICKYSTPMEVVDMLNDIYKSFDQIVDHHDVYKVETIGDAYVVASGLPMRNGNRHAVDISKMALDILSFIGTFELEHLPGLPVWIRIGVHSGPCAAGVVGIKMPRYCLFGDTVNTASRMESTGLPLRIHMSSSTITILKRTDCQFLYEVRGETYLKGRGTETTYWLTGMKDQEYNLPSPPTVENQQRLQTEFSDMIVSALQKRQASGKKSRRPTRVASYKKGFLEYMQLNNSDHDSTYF

C[C@@H]1NC(=O)[C@@H]2CCCN2C(=O)[C@H](CC(N)=O)NC(=O)[C@@H]2CSSC[C@H](N)C(=O)N[C@H]3CSSC[C@H](NC1=O)C(=O)N[C@@H]([C@@H](C)O)C(=O)NCC(=O)N[C@H](C(=O)N[C@@H](Cc1ccc(O)cc1)C(=O)O)CSSC[C@H](NC(=O)[C@H](Cc1ccc(O)cc1)NC(=O)[C@H](CCC(=O)O)NC3=O)C(=O)N2 [SEQ ID NO:3] (H-CCEYCCNPACTGCY-OH; disulfide 1-6, 2-10, 5-13; N-terminus and C-terminus assumed)
EMG response to colorectal distension (WT and GC-C KO mice [1]): decreased the EMG response to colorectal distension | intestinal transit, dose dependence (CD rats; female rats, FIG. 4e): increases in a dose dependent manner | intestinal transit (CD rats; rat GIT assay, FIG. 4d): intestinal transit increases | percent of subjects with at least a 2-point increase in BSFS consistency score ([2]; 1000 μg dose group, mean pre-dose compared to peak 48 hours post-dose, FIG. 14c): highest percent of subjects | BSFS post-dose scores versus dose ([2]; single oral dose 30-3000 μg): Higher BSFS post-dose scores correlated with a higher dose | maximum BSFS score ([2]; single oral dose 30-3000 μg, FIG. 14b): increase | 6 h bioavailability when AUC values for SEQ ID NO:6 are included [3]: 0.13% | cGMP levels in ligated loop (Female CD rats): increases | secretion in ligated loop (Female CD rats): increases | intestinal secretion (ratio of guts to carcass weight) (suckling mice): increase intestinal secretion | binding to intestinal epithelial cells, GC-C KO compared to wild-type mice [4]: reduction in SEQ ID NO:3 binding | TNBS induced hypersensitivity to CRD (WT and GC-C KO mice [5]; GC-C KO mice): A similar effect was not observed | TNBS induced hypersensitivity to CRD (WT and GC-C KO mice [5]; WT mice): reduces the TNBS induced hypersensitivity to CRD

From patent US20090305993A1, “METHODS AND COMPOSITION FOR THE TREATMENT OF GASTROINTESTINAL DISORDERS” (IRONWOOD PHARMACEUTICALS, INC., priority 2006, published 2009)
